Consider nine compounds from ChEMBL document CHEMBL1201862, “PubChem BioAssay data set” (2004).

Molecules are shown by their SMILES.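 Assay format: 96-well plates, 48-hour exposure. GI50 = concentration required for 50% inhibition of growth.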 Active and inactive are the calls of the source. No stated cut-off is given here; in the data, active = GI50 up to about 1.1 µM and inactive = higher.

Among the test systems are EKVX; IGROV-1; SN12C; SK-OV-3; SF-268; HCT-15; NCI-H460; K562; HCC 2998; COLO 205; LOX IMVI; SF-295; SK-MEL-28; KM12; A549; OVCAR-5; NCI-H226; OVCAR-4.
Common to all, as to experiment: NCI anticancer screen, dose series, 48 h

For `C/C(=C1/N=C(c2cc([N+](=O)[O-])ccc2Cl)N(c2cccc(C)c2)C1=O)c1cc2ccccc2oc1=O`, the GI50 is > 100 µM (inactive) with EKVX; 45.1 µM (inactive) with IGROV-1; > 100 µM (inactive) in the test with SN12C; > 100 µM (inactive) in the test with SK-OV-3; > 100 µM (inactive) in the test on SF-268; 36.7 µM in the test with HCT-15. For the same compound, the GI50 is 47.8 µM (inactive) in the test on NCI-H460; 33.7 µM (inactive) with K562; > 100 µM (inactive) in the test with HCC 2998; 45.3 µM (inactive) in the test with COLO 205; 16.7 µM (inactive) in the test with LOX IMVI; > 100 µM (inactive) with SF-295. Moreover, the GI50 in the test on SK-MEL-28 is > 100 µM (inactive); in the test with KM12 it was 64 µM (inactive); in the test on A549, > 100 µM (inactive); in the test with OVCAR-5 it was > 100 µM (inactive); in the test on NCI-H226, 43.6 µM (inactive).
Turning to `COc1ccc(CC2(Cc3ccc(OC)cc3)CCOC2=O)cc1`, the GI50 with EKVX is 44.2 µM (inactive); with IGROV-1, > 100 µM (inactive); in the test on SN12C it was > 100 µM (inactive); in the test with SK-OV-3, > 100 µM (inactive); in the test on SF-268, 45.8 µM (inactive); with NCI-H460, > 100 µM (inactive). Further, the GI50 in the test on K562 is > 100 µM (inactive); in the test on COLO 205, > 100 µM (inactive); with SF-295, 60.1 µM (inactive); in the test on SK-MEL-28, > 100 µM (inactive); with KM12, > 100 µM (inactive); with A549 it was > 100 µM (inactive). The GI50 with OVCAR-4, in the test with OVCAR-5 and with NCI-H226 was > 100 µM (inactive) throughout.
As to `CCOC(=O)N1CCN(C=S)CC1`, the GI50 with EKVX is > 100 µM (inactive); with IGROV-1, > 100 µM (inactive); in the test on SN12C, > 100 µM (inactive); with SK-OV-3, > 100 µM (inactive); with SF-268, > 100 µM (inactive); in the test with HCT-15, greater than 100 µM. Besides, the GI50 in the test with NCI-H460, in the test on K562, in the test with HCC 2998, with COLO 205, with LOX IMVI and in the test with SK-MEL-28 was > 100 µM (inactive) in each case. Besides, the GI50 in the test with KM12, with A549 and in the test with OVCAR-5 was > 100 µM (inactive) in each case.
Take `CC12Oc3ccc4ccccc4c3C1c1c(ccc3ccccc13)O2` (stereo not given): the GI50 in the test with EKVX, with IGROV-1, in the test with SN12C, with SK-OV-3, in the test with SF-268 and in the test on NCI-H460 was > 100 µM (inactive) each time. Further, the GI50 was > 100 µM (inactive) in the test on K562; > 100 µM (inactive) in the test with COLO 205; > 100 µM (inactive) with LOX IMVI; 58.6 µM (inactive) in the test on SF-295; > 100 µM (inactive) with SK-MEL-28; > 100 µM (inactive) with KM12. For the same compound, the GI50 was > 100 µM (inactive) in the test with A549, 35.9 µM (inactive) in the test on OVCAR-4, > 100 µM (inactive) in the test with OVCAR-5 and > 100 µM (inactive) with NCI-H226.
For `Cc1cc2c(C)nn(Cc3ccccc3)c2c(C(N)=O)c1C`, the GI50 is > 100 µM (inactive) in the test with EKVX; > 100 µM (inactive) with IGROV-1; > 100 µM (inactive) in the test on SN12C; > 100 µM (inactive) in the test on SK-OV-3; > 100 µM (inactive) in the test with SF-268; greater than 100 µM with HCT-15. Further, the GI50 in the test with NCI-H460, in the test on K562, with HCC 2998, with COLO 205, in the test on LOX IMVI and in the test on SF-295 was > 100 µM (inactive) in each case. Moreover, the GI50 in the test on SK-MEL-28, in the test on KM12, with A549, in the test with OVCAR-4 and in the test on OVCAR-5 was > 100 µM (inactive) each time.
For the compound `C[N+](C)(C)CC1CCC/C1=N\OC(=O)c1ccccc1` (stereo not given), the GI50 in the test on EKVX is > 100 µM (inactive); in the test on IGROV-1 it was > 100 µM (inactive); in the test on SN12C, > 100 µM (inactive); in the test with SK-OV-3 it was > 100 µM (inactive); in the test on SF-268, > 100 µM (inactive); in the test on HCT-15, greater than 100 µM. Besides, the GI50 in the test on K562, in the test with COLO 205, in the test with LOX IMVI, in the test with SF-295, in the test with SK-MEL-28 and with KM12 was > 100 µM (inactive) each time. The GI50 with A549, in the test on OVCAR-4 and in the test on NCI-H226 was > 100 µM (inactive) each time.
Turning to `Cc1cc(C)nc(NS(=O)(=O)c2ccc(Nc3c4ccc(Cl)cc4nc4c(C(=O)Nc5ccc(S(=O)(=O)N=C(N)N)cc5)cccc34)cc2)n1`, the GI50 is > 100 µM (inactive) in the test on EKVX; > 100 µM (inactive) in the test with SN12C; > 100 µM (inactive) in the test on SK-OV-3; 35.7 µM (inactive) with SF-268; greater than 100 µM in the test on HCT-15; > 100 µM (inactive) in the test on NCI-H460. For the same compound, the GI50 is 73.5 µM (inactive) with K562; > 100 µM (inactive) in the test on HCC 2998; 49.9 µM (inactive) in the test on LOX IMVI; > 100 µM (inactive) in the test on SF-295; 77.6 µM (inactive) with SK-MEL-28; > 100 µM (inactive) in the test with KM12. In addition, the GI50 in the test on OVCAR-4 and with OVCAR-5 was > 100 µM (inactive) throughout.
Take `C[N+](C)(C)CC(=O)N/N=C(/Cc1nc2c3c(ccc2nc1O)C(=O)c1ccccc1C3=O)C(=O)Nc1ccc(Cl)c(Cl)c1`: the GI50 in the test on EKVX is 13.1 µM (inactive); in the test on IGROV-1, 12.7 µM (inactive); in the test on SN12C it was 86.9 µM (inactive); in the test on SK-OV-3, 23.9 µM (inactive); in the test on SF-268 it was 26 µM (inactive); in the test with NCI-H460, 40.7 µM (inactive). In addition, the GI50 in the test on K562 is 53.5 µM (inactive); in the test with HCC 2998 it was 76.9 µM (inactive); in the test with COLO 205, > 100 µM (inactive); in the test on SF-295 it was 79.4 µM (inactive); in the test with SK-MEL-28, > 100 µM (inactive); in the test on KM12, 19.7 µM (inactive). Further, the GI50 is 42.7 µM (inactive) with A549, 87.9 µM (inactive) in the test on OVCAR-4 and > 100 µM (inactive) in the test with OVCAR-5.
Regarding `C#CCNC(=O)ON1C(=O)CCC1=O`, the GI50 in the test with EKVX was > 100 µM (inactive); in the test with IGROV-1, > 100 µM (inactive); with SN12C it was > 100 µM (inactive); with SK-OV-3, > 100 µM (inactive); in the test with SF-268, > 100 µM (inactive); in the test on HCT-15, greater than 100 µM. Also, the GI50 with NCI-H460, in the test with K562, in the test on COLO 205, with LOX IMVI, in the test on SF-295 and in the test on SK-MEL-28 was > 100 µM (inactive) in each case. For the same compound, the GI50 in the test on KM12, with A549, in the test with OVCAR-4 and with OVCAR-5 was > 100 µM (inactive) throughout.
